Some results are limits rather than exact numbers.

Usually IC50 stands for the concentration that gives 50% inhibition. The EC50 is the concentration that produces a half-maximal response.

Data set [1] is described as follows: Antiproliferative activity against mouse J774.1 cells after 48 hrs by alamar blue assay. The format is cell-based.
Data set [2] has as its system Leishmania major. The data set can be described thus: Antileishmanial activity against Leishmania major MHOM/IL/81/FE/BNI promastigotes by alamar blue assay. The class given is functional, organism-based.
Data set [3] in a line: Selectivity index, ratio of IC50 for mouse J774.1 cells to IC50 for Leishmania major MHOM/IL/81/FE/BNI promastigotes. As to conditions: for selectivity ratio: J774.1 cells, read-out: Ratio IC50; call rule not given here. The class given is toxicity.
For a further data set, the target named is Albumin (Bos taurus, UniProt P02769). The experiment in a line: Binding affinity to bovine serum albumin by ultrafiltration method. As to conditions: cattle, bovine serum albumin; read-out: PPB (converted). The format is ADME.
Chain of Albumin (P02769 whole entry): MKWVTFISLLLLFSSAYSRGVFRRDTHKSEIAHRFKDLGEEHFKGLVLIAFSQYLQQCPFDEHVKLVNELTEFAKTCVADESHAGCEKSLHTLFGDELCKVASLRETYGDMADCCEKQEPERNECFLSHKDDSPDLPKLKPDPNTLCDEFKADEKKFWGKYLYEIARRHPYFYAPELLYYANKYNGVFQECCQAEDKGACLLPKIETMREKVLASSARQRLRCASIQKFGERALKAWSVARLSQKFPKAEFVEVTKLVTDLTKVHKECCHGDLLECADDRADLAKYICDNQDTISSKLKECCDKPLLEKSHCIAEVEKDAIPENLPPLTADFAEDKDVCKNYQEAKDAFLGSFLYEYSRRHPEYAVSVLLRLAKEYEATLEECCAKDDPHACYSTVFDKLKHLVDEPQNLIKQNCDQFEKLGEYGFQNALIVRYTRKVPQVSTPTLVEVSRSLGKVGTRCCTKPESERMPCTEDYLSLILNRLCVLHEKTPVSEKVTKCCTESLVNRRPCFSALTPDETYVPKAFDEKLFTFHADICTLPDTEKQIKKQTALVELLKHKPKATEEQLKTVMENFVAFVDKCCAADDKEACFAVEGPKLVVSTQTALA
Data set [4] in a line: Cytotoxicity against BALB/c mouse peritoneal macrophages after 48 hrs by alamar blue assay. The class given is cell-based. As to conditions: Macrophage.
Data set [5] in a line: Ratio of IC50 for BALB/c mouse peritoneal macrophages to EC50 for Leishmania major MHOM/IL/81/FE/BNI promastigotes.
For data set [6], the system named is Leishmania major. The experiment in a line: Antileishmanial activity against Leishmania major MHOM/IL/81/FE/BNI promastigotes infected in BALB/c mouse peritoneal macrophages assessed as decrease in infection rate after 48 hrs by fluorescence microscopy. The format is functional, organism-based.
The target in another data set is Cytochrome P450 2C9 (Homo sapiens, UniProt P11712). The data set can be described thus: Inhibition of human CYP2C9 at 100 uM by LC/ESI-MS analysis. The format is ADME.
Chain of Cytochrome P450 2C9 (P11712 whole entry): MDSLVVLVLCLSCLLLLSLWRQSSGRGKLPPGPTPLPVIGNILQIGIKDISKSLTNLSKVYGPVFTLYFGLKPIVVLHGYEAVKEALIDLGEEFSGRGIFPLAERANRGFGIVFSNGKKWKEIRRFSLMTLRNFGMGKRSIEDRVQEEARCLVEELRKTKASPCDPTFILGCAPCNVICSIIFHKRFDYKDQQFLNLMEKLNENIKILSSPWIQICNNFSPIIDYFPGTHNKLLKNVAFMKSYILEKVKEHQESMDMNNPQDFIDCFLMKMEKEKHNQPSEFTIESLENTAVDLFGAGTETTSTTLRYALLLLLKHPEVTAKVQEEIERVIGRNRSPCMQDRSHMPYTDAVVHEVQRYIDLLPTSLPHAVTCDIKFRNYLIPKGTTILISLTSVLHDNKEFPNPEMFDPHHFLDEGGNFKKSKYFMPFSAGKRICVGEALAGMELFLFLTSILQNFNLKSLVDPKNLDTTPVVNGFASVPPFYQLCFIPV
A further data set has as its target Cytochrome P450 2C19 (Homo sapiens, UniProt P33261). The experiment in a line: Inhibition of human CYP2C19 at 100 uM by LC/ESI-MS analysis. The class given is ADME.

Chain of Cytochrome P450 2C19 (P33261 whole entry): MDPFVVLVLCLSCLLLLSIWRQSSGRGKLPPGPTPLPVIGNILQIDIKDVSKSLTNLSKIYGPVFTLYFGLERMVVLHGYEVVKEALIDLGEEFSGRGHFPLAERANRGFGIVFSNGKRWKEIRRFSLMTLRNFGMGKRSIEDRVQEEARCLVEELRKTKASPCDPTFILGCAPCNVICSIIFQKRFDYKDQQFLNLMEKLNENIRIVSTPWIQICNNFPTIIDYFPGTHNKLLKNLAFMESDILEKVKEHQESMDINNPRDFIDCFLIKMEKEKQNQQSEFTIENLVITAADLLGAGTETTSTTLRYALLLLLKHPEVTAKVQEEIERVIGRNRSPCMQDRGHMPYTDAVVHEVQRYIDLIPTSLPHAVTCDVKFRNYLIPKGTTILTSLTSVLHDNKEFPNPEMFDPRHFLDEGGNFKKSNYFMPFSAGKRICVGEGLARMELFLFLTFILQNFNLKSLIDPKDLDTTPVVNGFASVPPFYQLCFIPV

`COc1cc(OC)c2c(C)[n+](-c3ccc(C#N)cc3)c(C)cc2c1`: the IC50 in data set [1] (Mus musculus, J774.1, 48 h) was over 100 µM; in the data set on Leishmania major [2] (Leishmania major), over 100 µM.
Consider `COc1cc2c(c(OC)c1)C(C)N(c1ccc(OC)c3c(OC)cc(C)cc13)[C@@H](C)C2` (mixture of isomers), for which the IC50 in data set [1] (Mus musculus, J774.1, 48 h) was over 100 µM; in the data set on Leishmania major [2] (Leishmania major), 64.8 µM.
Consider `CCCc1ccc(-[n+]2c(C)cc3cc(OC)cc(OC)c3c2C)cc1`, for which the IC50 in data set [1] (Mus musculus, J774.1, 48 h) is 5.36 µM; in the data set with Leishmania major [2] (Leishmania major) it was 1.63 µM. In addition, the selectivity ratio in data set [3] stood at 1.14.
With `COc1cc(OC)c2c(C)[n+](-c3ccc(Br)cc3)c(C)cc2c1`, the IC50 in [1] (Mus musculus, J774.1, 48 h) was found to be 2.97 µM; in the data set with Leishmania major [2] (Leishmania major), 19.7 µM. Further, the selectivity ratio in data set [3] was under 1.
The corresponding values for `COc1cc(OC)c2c(C)[n+](-c3ccc(Cl)cc3)c(C)cc2c1` are 3.05 µM, 18.9 µM and under 1.
Turning to `COc1cc(OC)c2c(C)[n+](-c3ccc(OC(C)=O)cc3)c(C)cc2c1`, the IC50 in data set [1] (Mus musculus, J774.1, 48 h) is over 100 µM; in the data set on Leishmania major [2] (Leishmania major), over 100 µM.
As for `COc1cc(OC)c2c(C)[n+](-c3ccc(C(C)C)cc3C(C)C)c(C)cc2c1`, the IC50 in data set [1] (Mus musculus, J774.1, 48 h) is 2.25 µM; in the data set with Leishmania major [2] (Leishmania major), 0.54 µM. Moreover, in data set [3], the selectivity ratio was 4.17. Also, at Albumin, the fraction unbound is 0.416.
Take `COc1cc(OC)c2c(C)[n+](-c3cccc4cc5ccccc5cc34)c(C)cc2c1`: the IC50 in data set [1] (Mus musculus, J774.1, 48 h) came to 1.69 µM; in the data set on Leishmania major [2], 1.85 µM. Moreover, the selectivity ratio in data set [3] is under 1.
As for `COc1cc(OC)c2c(C)[n+](-c3ccc4cc5ccccc5cc4c3)c(C)cc2c1`, the IC50 in [1] (Mus musculus, J774.1, 48 h) stood at 0.23 µM; in the data set on Leishmania major [2] (Leishmania major) it was 0.67 µM. For the same molecule, in data set [3], the selectivity ratio was under 1.
`COc1cc(OC)c2c(C)[n+](-c3cccc4c3C(=O)c3ccccc3C4=O)c(C)cc2c1`: the IC50 is over 100 µM in data set [1] (Mus musculus, J774.1, 48 h) and over 100 µM with Leishmania major [2] (Leishmania major).
Regarding `COc1cc2c(c(OC)c1)C(C)N(c1cccc3ccccc13)C(C)C2` (stereo not drawn), the IC50 in data set [1] (Mus musculus, J774.1, 48 h) is over 100 µM; with Leishmania major [2] (Leishmania major), 65.6 µM.
Consider `COc1cc(OC)c2c(C)[n+](-c3ccc(C)cc3C)c(C)cc2c1`, for which the IC50 in [1] (Mus musculus, J774.1, 48 h) turned out to be 4.07 µM; in the data set with Leishmania major [2] (Leishmania major), 3.28 µM. For the same molecule, the selectivity ratio in [3] was found to be 1.24.
Take `COc1cc(OC)c2c(C)[n+](-c3c(C)cc(C)cc3C)c(C)cc2c1`: the IC50 came out at 4.2 µM in data set [1] (Mus musculus, J774.1, 48 h) and 1.49 µM in the data set with Leishmania major [2] (Leishmania major). Besides, the selectivity ratio in data set [3] amounted to 2.82.
With `COc1cc(OC)c2c(C)[n+](-c3cccc(C)c3C)c(C)cc2c1`, the IC50 amounted to 10.5 µM in [1] (Mus musculus, J774.1, 48 h) and 11.6 µM in the data set on Leishmania major [2] (Leishmania major). Besides, the selectivity ratio in data set [3] is under 1.
The corresponding values for `COc1cc(OC)c2c(C)[n+](-c3ccc4ccccc4c3)c(C)cc2c1` are 8.13 µM, 3.37 µM and 2.41.
`COc1cc2c(c(OC)c1)C(C)N(c1ccc(C(C)C)cc1)C(C)C2` (stereo not drawn): the IC50 was determined as 74.7 µM in [1] (Mus musculus, J774.1, 48 h) and 49.9 µM with Leishmania major [2] (Leishmania major).
The corresponding values for `COc1cc(OC)c2c(C)[n+](-c3ccc4ncccc4c3)c(C)cc2c1` are over 100 µM and over 100 µM.
Take `COc1cc(OC)c2c(C)[n+](-c3ccc(O)cc3)c(C)cc2c1`: the IC50 in data set [1] (Mus musculus, J774.1, 48 h) is over 100 µM; in the data set on Leishmania major [2] (Leishmania major), 15.9 µM.
`COc1cc(OC)c2c(C)[n+](-c3cccc4ccccc34)c(C)cc2c1`: the 50% inhibitory concentration (IC50) came out at 4.29 µM in data set [1] (Mus musculus, J774.1, 48 h) and 1.63 µM in the data set on Leishmania major [2] (Leishmania major). Besides, in data set [3], the selectivity ratio was found to be 2.63.
`C[C@@H]1[C@H](O)[C@@H](C)/C=C/C=C/C=C/C=C/C=C/C=C/C=C/[C@H](O[C@@H]2O[C@H](C)[C@@H](O)[C@H](N)[C@@H]2O)C[C@@H]2O[C@](O)(C[C@@H](O)C[C@@H](O)[C@H](O)CC[C@@H](O)C[C@@H](O)CC(=O)O[C@H]1C)C[C@H](O)[C@H]2C(=O)O` [AMPHOTERICIN B]: the concentration for half-maximal inhibition (IC50) in data set [4] is over 70 µM; in [1] (Mus musculus, J774.1, 48 h) it was over 70 µM; with Leishmania major [2] (Leishmania major), 5.07 µM. For the same molecule, the “Ratio IC50/EC50” value in data set [5] is over 1000. Moreover, the selectivity ratio in [3] is over 14. Also, the EC50 in the data set with Leishmania major [6] was determined as 0.075 µM.
With `COc1cc2c(c(OC)c1)C(C)N(c1ccc(OC)c3c(OC)cc(C)cc13)[C@H](C)C2` (mixture of isomers), the IC50 in data set [1] (Mus musculus, J774.1, 48 h) was over 100 µM; in the data set on Leishmania major [2] (Leishmania major), 66.7 µM.
`CCc1ccc(-[n+]2c(C)cc3cc(OC)cc(OC)c3c2C)cc1`: the IC50 in data set [1] (Mus musculus, J774.1, 48 h) amounted to 4.5 µM; in the data set on Leishmania major [2] (Leishmania major), 5.53 µM. The selectivity ratio in data set [3] is under 1. Further, the fraction unbound on Albumin was 0.475.
Take `COc1cc(OC)c2c(C)[n+](-c3ccc(C(C)(C)C)cc3)c(C)cc2c1`: the IC50 in data set [1] (Mus musculus, J774.1, 48 h) came out at 4.28 µM; in the data set on Leishmania major [2] (Leishmania major), 2.67 µM. Moreover, the selectivity ratio in data set [3] came out at 1.6.
On to `C=C[C@H]1C[N@@]2CC[C@H]1C[C@@H]2[C@@H](O)c1ccnc2ccc(OC)cc12` [QUINIDINE], for which the outcome at Cytochrome P450 2C9 and at Cytochrome P450 2C19 was Active.
With `CCCCc1ccc(-[n+]2c(C)cc3cc(OC)cc(OC)c3c2C)cc1`, the IC50 stood at 4.47 µM in [1] (Mus musculus, J774.1, 48 h) and 2.69 µM with Leishmania major [2] (Leishmania major). For the same molecule, in [3], the selectivity ratio was under 1.
With `COc1cc(OC)c2c(C)[n+](-c3ccc4scnc4c3)c(C)cc2c1`, the IC50 in [1] (Mus musculus, J774.1, 48 h) was 63.2 µM; with Leishmania major [2] (Leishmania major), over 100 µM. Moreover, the fraction unbound at Albumin was 0.671.
Turning to `COc1cc(OC)c2c(C)[n+](-c3cccc4cc5ccccc5cc34)c(C)cc2c1.F[B-](F)(F)F`, the IC50 is 2.95 µM in [1] (j774.1) and 0.72 µM in the data set on Leishmania major [2]. For the same molecule, the “Ratio IC50” value in [3] is under 1.
Take `COc1ccc(-[n+]2c(C)cc3cc(OC)cc(OC)c3c2C)cc1`: the half-maximal inhibitory concentration (IC50) in [1] (Mus musculus, J774.1, 48 h) is over 100 µM; in the data set with Leishmania major [2] (Leishmania major), over 100 µM.

(Values after ChEMBL document CHEMBL1143311, “Structure-activity relationship and studies on the molecular mechanism of leishmanicidal N,C-coupled arylisoquinolinium salts” (J Med Chem, 2009).)
